Patent US20080221086A1, “Novel Inhibitors of Glutaminyl Cyclase” (PROBIODRUG AG, priority 2006, published 2008)
Where two headings read alike, the source gives them in different places.

Molecular target: hQC (Homo sapiens, UniProt Q16769)
Experiment: Fluorometric assay of glutaminyl cyclase (QC) inhibition, H-Gln-βNA or H-Gln-AMC substrate
Format: biochemical
Outline: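 Ki values were obtained by fitting progress curves to a competitive-inhibition equation, and the rapid screen used 4 mM inhibitor with substrate at 1 KM. Both readouts coupled pyroglutamyl aminopeptidase at pH 8.0 and 30° C: H-Gln-βNA at 0.2 mM (ex/em 320/410 nm) or H-Gln-AMC (380/460 nm).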

hQC, sequence (Q16769 29-361): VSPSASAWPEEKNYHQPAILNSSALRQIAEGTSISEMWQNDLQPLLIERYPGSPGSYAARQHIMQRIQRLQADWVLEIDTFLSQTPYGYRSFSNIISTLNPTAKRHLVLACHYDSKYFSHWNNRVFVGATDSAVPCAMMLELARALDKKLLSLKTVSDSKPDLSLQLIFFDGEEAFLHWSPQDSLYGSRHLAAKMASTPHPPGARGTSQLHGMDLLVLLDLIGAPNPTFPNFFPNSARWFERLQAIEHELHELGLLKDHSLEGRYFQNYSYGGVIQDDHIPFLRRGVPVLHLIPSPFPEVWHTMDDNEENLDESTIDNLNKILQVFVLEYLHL

Row | SMILES | IC50 (read-out: IC50) | IC50 (compound from preparative synthesis, purified by chromatography, fluorescent assay, read-out: IC50 hQC)
1 | Cc1ccc2c(C3/C(=N\CCCc4ccccc4)NC(=O)N3c3ccc4[nH]cnc4c3)c[nH]c2c1 (stereo not drawn) [Compound 120, 1-(1H-Benzoimidazol-5-yl)-5-(6-methyl-1H-indol-3-yl)-4-3-phenyl-propylimino-imidazolidin-2-one] | 1.3 µM | –
2 | O=c1c(C2/C(=N/Cc3ccccc3)NC(=S)N2c2ccc3[nH]cnc3c2)coc2ccccc12 (stereo not drawn) [Compound 124, 3-{3-(1H-Benzoimidazol-5-yl)-5-benzylimino-2-thioxo-imidazolidin-4-yl}-chromen-4-one] | 3.1 µM | –
3 | O=C(C/N=C1\NC(=S)N(c2ccc3[nH]cnc3c2)C1c1cc(Br)cc(Br)c1)N1CCSCC1 (stereo not drawn) [Compound 125, 2-(1-(1H-benzo[d]imidazol-5-yl)-5-(3,5-dibromophenyl)-2-thioxoimidazolidin-4-ylideneamino)-1-thiomorpholinoethan-one] | 2.2 µM | –
4 | N#Cc1cccc(/N=C2\NC(=S)N(c3ccc4[nH]cnc4c3)C2c2ccc3c(c2)OCCO3)c1 (stereo not drawn) [Compound 126, 3-(1-(1H-benzo[d]imidazol-5-yl)-5-(2,3-dihydrobenzo[b][1,4]dioxin-6-yl)-2-thioxoimidazolidin-4-ylideneamino)benzo-nitrile] | 4.9 µM | –
5 | O=C1N/C(=N/Cn2nnc3ccccc32)C(c2ccc(Cl)cc2)N1c1ccc2[nH]cnc2c1 (stereo not drawn) [Compound 128, 1-(1H-Benzoimidazol-5-yl)-4-benzotriazol-1-ylmethylimino-5-(4-chloro-phenyl)-imidazolidin-2-one] | 3.1 µM | –
6 | S=C1N/C(=N/CCCc2ccccc2)C(c2cc(Br)cc(Br)c2)N1c1ccc2[nH]cnc2c1 (stereo not drawn) [Compound 131, 1-(1H-Benzoimidazol-5-yl)-5-(3,5-dibromo-phenyl)-4-3-phenyl-propylimno-imidazolidine-2-thione] | 5.8 µM | –
7 | S=C1N/C(=N/Cc2ccc3[nH]ccc3c2)C(c2cc(Br)cc(Br)c2)N1c1ccc2nc[nH]c2c1 (stereo not drawn) [Compound 132, 1-(3H-Benzoimidazol-5-yl)-5-(3,5-dibromo-phenyl)-4-1H-indol-5-ylmethylimino-imidazolidine-2-thione] | 4.9 µM | –
8 | S=C1N/C(=N/Cc2ccccc2)C(c2ccc(Br)cc2)N1c1ccc2[nH]cnc2c1 (stereo not drawn) [Compound 133, 1-(1H-Benzoimidazol-5-yl)-4-benzylimino-5-(4-bromo-phenyl)-imidazolidine-2-thione] | 5.8 µM | –
9 | S=C1NC(=NCCc2cccs2)C(c2cc3c(cc2Br)OCO3)N1c1ccc2nc[nH]c2c1 (stereo not drawn) [Compound 137, 1-(3H-Benzoimidazol-5-yl)-5-(6-bromo-benzo1,3dioxol-5-yl)-4-2-thiophen-2-yl-ethylimino-imidazolidin-2-thione] | 4 µM | –
10 | S=C1N/C(=N\C(Cc2ccccc2)c2ccccc2)C(c2cc3c(cc2Br)OCO3)N1c1ccc2[nH]cnc2c1 (stereo not drawn) [Compound 139, 1-(1H-Benzoimidazol-5-yl)-5-(6-bromo-benzo1,3dioxol-5-yl)-4-1,2-diphenyl-ethylimino-imidazolidine-2-thione] | 9.4 µM | –
11 | Cc1ccc(C2/C(=N\c3cccc(C#N)c3)NC(=S)N2c2ccc3[nH]cnc3c2)c(C)c1 (stereo not drawn) [Compound 140, 3-(1-(1H-benzo[d]imidazol-5-yl)-5-(2,4-dimethylphenyl)-2-thioxoimidazolidin-4-ylideneamino)benzo-nitrile] | 8.5 µM | –

The remaining lines, values ahead:

Row | IC50 (read-out: IC50) | IC50 (compound from preparative synthesis, purified by chromatography, fluorescent assay, read-out: IC50 hQC) | SMILES
12 | 5.8 µM | – | Cc1ccc(C2/C(=N/C(C)(C)CC(C)(C)C)NC(=S)N2c2ccc3nc[nH]c3c2)cc1 (stereo not drawn) [Compound 118, 1-(3H-Benzoimidazol-5-yl)-4-1,1,3,3-tetramethyl-butylimino-5-p-tolyl-imidazolidine-2-thione]
13 | 6.7 µM | – | O=C(C/N=C1/NC(=O)N(c2ccc3[nH]cnc3c2)C1c1cc(Br)cs1)N1CCCCC1 (stereo not drawn) [Compound 119, 1-(1H-Benzoimidazol-5-yl)-5-(4-bromo-thiophen-2-yl)-4-2-oxo-2-piperidin-1-yl-ethylimino-imidazolidin-2-one]
14 | 0.4 µM | – | O=C1N/C(=N\C2CCc3ccccc32)C(c2ccnc3ccccc23)N1c1ccc2[nH]cnc2c1 (stereo not drawn) [Compound 121, 1-(1H-Benzoimidazol-5-yl)-4-indan-1-ylimino-5-quinolin-4-yl-imidazolidin-2-one]
15 | 0.4 µM | – | O=C1N/C(=N\C2CCCCC2O)C(c2ccc3[nH]ccc3c2)N1c1ccc2[nH]cnc2c1 (stereo not drawn) [Compound 122, 1-(1H-Benzoimidazol-5-yl)-4-2-hydroxy-cyclohexylimino-5-(1H-indol-5-yl)-imidazolidin-2-one]
16 | 0.4 µM | – | C/N=C1/NC(=O)N(c2ccc3[nH]cnc3c2)C1c1ccc2c(c1)OCCO2 (stereo not drawn) [Compound 123, 1-(1H-Benzoimidazol-5-yl)-5-(2,3-dihydro-benzo1,4dioxin-6-yl)-4-methylimino-imidazolidin-2-one]
17 | 4 µM | – | Cc1ccc2occ(C3/C(=N/C4CCCCC4O)NC(=O)N3c3ccc4[nH]cnc4c3)c(=O)c2c1 (stereo not drawn) [Compound 127, 1-(1H-Benzoimidazol-5-yl)-4-2-hydroxy-cyclohexylimino-5-(6-methyl-4-oxo-4H-chromen-3-yl)-imidazolidin-2-one]
18 | 0.004 µM | – | O=C1N/C(=N\C2CCCC2)C(c2ccc(N3CCCC3)cc2)N1c1ccc2[nH]cnc2c1 (stereo not drawn) [Compound 129, 1-(1H-Benzoimidazol-5-yl)-4-cyclopentylimino-5-(4-pyrrolidin-1-yl-phenyl)-imidazolidin-2-one]
19 | 7.6 µM | – | CC(CC1/C(=N/C2CCCCCC2)NC(=O)N1c1ccc2nc[nH]c2c1)CC(C)(C)C (stereo not drawn) [Compound 130, 1-(3H-Benzoimidazol-5-yl)-4-cycloheptylimino-5-(2,4,4-trimethyl-pentyl)-imidazolidin-2-one]
20 | 2.2 µM | – | O=C(C/N=C1\NC(=S)N(c2ccc3[nH]cnc3c2)C1c1c(F)ccc(Cl)c1F)N1CCCC(O)C1 (stereo not drawn) [Compound 134, 2-(1-(1H-benzo[d]imidazol-5-yl)-5-(3-chloro-2,6-difluorophenyl)-2-thioxoimidazolidin-4-ylideneamino)-1-(3-hydroxypiperidin-1-yl)ethanone]
21 | 5.8 µM | – | O=C(C/N=C1\NC(=O)N(c2ccc3[nH]cnc3c2)C1c1ccccc1Cl)N1CCSCC1 (stereo not drawn) [Compound 135, 1-(1H-Benzoimidazol-5-yl)-5-(2-chloro-phenyl)-4-2-oxo-2-thiomorpholin-4-yl-ethylimino-imidazolidin-2-one]
22 | 6.7 µM | – | CCc1ccccc1C1/C(=N/C2CCCc3ccccc32)NC(=S)N1c1ccc2[nH]cnc2c1 (stereo not drawn) [Compound 136, 1-(1H-Benzoimidazol-5-yl)-5-(2-ethyl-phenyl)-4-1,2,3,4-tetrahydro-naphthalen-1-yliminoimidazolidine-2-thione]
23 | 0.004 µM | 1.23 µM | CC(/N=C1\NC(=O)N(c2ccc3[nH]cnc3c2)C1c1ccccc1C(F)(F)F)C(C)(C)C (stereo not drawn) [Compound 138, 1-(1H-Benzoimidazol-5-yl)-5-(2-trifluoromethyl-phenyl)-4-1,2,2-trimethyl-propylimino-imidazolidin-2-one]
24 | 9.4 µM | – | C/N=C1/NC(=S)N(c2ccc3[nH]cnc3c2)C1c1ccc(C)cc1 (stereo not drawn) [Compound 141, 1-(1H-Benzoimidazol-5-yl)-4-methylimino-5-p-tolyl-imidazolidine-2-thione]
25 | 8.5 µM | – | Cc1nc[nH]c1C1/C(=N/C2CCCCC2O)NC(=O)N1c1ccc2[nH]cnc2c1 (stereo not drawn) [Compound 142, 3-(1H-Benzoimidazol-5-yl)-5-2-hydroxy-cyclohexylimino-5′-methyl-1,3,4,5-tetrahydro-3′H-4,4′biimidazolyl-2-one]
26 | 2.2 µM | – | O=C(C/N=C1\NC(=S)N(c2ccc3[nH]cnc3c2)C1c1cc2c(cc1Br)OCO2)NN1CCCCC1 (stereo not drawn) [Compound 143]
